The source of these data is patent US8633224B2, “Hemiasterlin derivatives and uses thereof in the treatment of cancer” (Eisai Co., Ltd., priority 2002, dated 2014).

The subject of the first data set is human cancer cells. Briefly: in vitro and in vivo screening panel (growth inhibition, MDR, cytotoxicity, mouse serum stability, mitotic block reversibility, tumor xenograft). The settings on record: properties (i)-(vii) of b364/b365. As to the method: In certain embodiments, compounds of the invention were tested for in vitro and in vivo activity. Screening methods included standard in vitro cell growth inhibition assays using a panel of human cancer cell lines, a U937 (ATCC accession number CRL 1593) mitotic block reversibility assay, mouse serum stability assay, MDR assay, and cytotoxicity assay. In certain other embodiments, compounds of the invention were evaluated in tumor xenograft in vivo growth inhibition assays.
Cultured human cancer cells (including breast, prostate, colon, lung, leukemia, lymphoma and other) were plated in 96-well plates and grown in the continuous presence of test compounds for 72 or 96 hours. The human cell lines used in this cell growth inhibition assay, include, but are not limited to, the following solid tumor cell lines and non-solid tumor cell lines: DLD-1 colon cancer cells (ATCC accession number CCL-221), DU 145 prostate cancer cells (ATCC accession number HTB-81), H460 non small cell lung cancer, HCT-15 colon cancer cells (ATCC accession number CCL-225), HEL erythroleukemia cells, HL-60 promyelocytic leukemia cells (ATCC accession number CCL-240), K562 leukemia (ATCC accession number CCL-243), LOX melanoma, MDA-MB-435 breast cancer cells, U937 lymphoma cells (ATCC accession number CRL 1593), PANC-1 pancreatic cancer (ATCC accession number CRL-1469), HCC-2998 colon cancer (NCI-Frederick Cancer DCTD Tumor/Cell Line Repository), HCT 116 colon cancer (ATCC accession number CCL-247), HT-29 colon cancer (ATCC accession number HTB-38), LoVo colon cancer (ATCC accession number CCL-229), SW-480 colon cancer (ATCC accession number CCL-228), SW-620 colon cancer (ATCC accession number CCL-227) and COLO-205 colon cancer (ATCC accession number CCL-222). For monolayer cultures, growth was assessed using modifications (Amin et al, Cancer Res., 47: 6040-6045, 1987) of a methylene blue-based microculture assay (Finlay et al, Anal. Biochem., 139: 272-277, 1984). Absorbances at 620 and 405 nm were measured on a Titertek Multiscan MCC/340 plate reader and absorbances at 405 nm were subtracted from absorbances at 620 nm. For suspension cultures, growth was assessed using a 3-(4,5-dimethylthiazol-2-yl)-2,5-diphenyl tetrazolium bromide-based assay (Mosmann et al, J. Immunol. Methods, 65: 55-63, 1983) modified as follows. After 4 days of incubation with test compounds, sterile-filtered 3-(4,5-dimethylthiazol-2-yl)-2,5-diphenyl tetrazolium bromide was added to each well (final concentration, 0.5 mg/ml), and plates were incubated at 37° C. for 4 h. Acid-isopropanol (0.1 N HCl in isopropanol, […]) was then added to each well, and the resultant formazan crystals were dis-solved by gentle mixing. Absorbances at 540 nm were measured on a Titertek Multiscan MCC/340 plate reader.
Briefly, U937 (ATCC accession number […]) were exposed to various concentration of compounds for 12 hours. The compounds were washed away and the cells were allowed to recover for an additional 10 hours. The cells were collected by centrifugation and fixed overnight in 70% ethanol. The cells were washed in PBS, incubated with RNase A and stained with propidium iodide. Single channel flow cytometry was performed on a Becton Dickinson FACScan; the collection and analysis of data were performed using Becton Dickinson CELLQuest software. Doublet events were eliminated from analyses by proper gating on FL2-W/FL2-A primary plots before histogram analysis of DNA content (measured as FL2-A).
This is a modification of the standard cell growth inhibition assays described above. Two cultured human cancer cell lines were used: human uterine sarcoma MDR negative MES-SA cells (ATCC accession number CRL-1976) and human uterine sarcoma MDR-positive MES-SA/Dx5 cells (ATCC accession number CRL-1977). Cells were plated in a 96-well microtiter plates at a density of 7500 cells/well. The cells were incubated in the presence or absence of test compounds for 96 hours.
Regarding `C/C(=C\[C@H](C(C)C)N(C)C(=O)[C@@H](NC(=O)[C@H]1CCCCN1C(C)C(C)C)C(C)(C)C)C(=O)O` (single isomer, unassigned) [ER-808662], the “desired properties (growth inhibition IC50, resistance ratio, cytotoxicity in non-dividing normal cells, mouse serum stability, mitotic block reversibility, tumor regression, tumor growth inhibition)” value was “exhibiting desired properties”.

Turning to `CCC(C)N1CCCCC1C(=O)NC(C(=O)N(C)[C@H](/C=C(\C)C(=O)O)C(C)C)C(C)(C)C` (stereo in doubt) [ER-808368], the “desired properties (growth inhibition IC50, resistance ratio, cytotoxicity in non-dividing normal cells, mouse serum stability, mitotic block reversibility, tumor regression, tumor growth inhibition)” value is recorded as “exhibiting desired properties”.

As for `CCC(C)N1CCCCC1C(=O)NC(C(=O)N(C)[C@H](/C=C(\C)C(=O)O)C(C)C)C(C)C` (stereo in doubt) [ER-808824], the “desired properties (growth inhibition IC50, resistance ratio, cytotoxicity in non-dividing normal cells, mouse serum stability, mitotic block reversibility, tumor regression, tumor growth inhibition)” value was “exhibiting desired properties”.

In the case of `CN[C@H](C(=O)N[C@H](C(=O)N(C)[C@H](/C=C(\C)C(=O)N1CCC[C@H]1C(=O)OC)C(C)C)C(C)(C)C)C(C)(C)c1ccccc1` [ER-805736], the “desired properties (growth inhibition IC50, resistance ratio, cytotoxicity in non-dividing normal cells, mouse serum stability, mitotic block reversibility, tumor regression, tumor growth inhibition)” value was “exhibiting desired properties”.

As for `CN[C@H](C(=O)N[C@H](C(=O)N(C)[C@H](/C=C(\C)C(=O)O)C(C)C)C(C)(C)C)C(C)(C)c1ccc(OCc2ccccc2)cc1` [ER-805913], the “desired properties (growth inhibition IC50, resistance ratio, cytotoxicity in non-dividing normal cells, mouse serum stability, mitotic block reversibility, tumor regression, tumor growth inhibition)” value was “exhibiting desired properties”.

For `CN[C@H](C(=O)N[C@H](C(=O)N(C)[C@H](CN(C)CC(=O)N1CCC[C@H]1C(=O)OC)C(C)C)C(C)(C)C)C(C)(C)c1ccccc1` [ER-806925], the “desired properties (growth inhibition IC50, resistance ratio, cytotoxicity in non-dividing normal cells, mouse serum stability, mitotic block reversibility, tumor regression, tumor growth inhibition)” value is on record as “exhibiting desired properties”.

As to `C/C(=C\[C@H](C(C)C)N(C)C(=O)[C@@H](NC(=O)[C@@H]1CCCCN1C)C(C)(C)C)C(=O)O` [ER-807102], the “desired properties (growth inhibition IC50, resistance ratio, cytotoxicity in non-dividing normal cells, mouse serum stability, mitotic block reversibility, tumor regression, tumor growth inhibition)” value is listed as “exhibiting desired properties”.

Take `CN[C@H](C(=O)N[C@H](C(=O)N(C)[C@H](CN1CCC[C@H]1C(=O)N1CCC[C@H]1C(N)=O)C(C)C)C(C)(C)C)C(C)(C)c1ccccc1` [ER-807328]: the “desired properties (growth inhibition IC50, resistance ratio, cytotoxicity in non-dividing normal cells, mouse serum stability, mitotic block reversibility, tumor regression, tumor growth inhibition)” value is “exhibiting desired properties”.

`CCC(CC)(NC)C(=O)N[C@H](C(=O)N(C)[C@H](/C=C(\C)C(=O)O)C(C)C)C(C)(C)C` [ER-807850]: the “desired properties (growth inhibition IC50, resistance ratio, cytotoxicity in non-dividing normal cells, mouse serum stability, mitotic block reversibility, tumor regression, tumor growth inhibition)” value is listed as “exhibiting desired properties”.

`CC(C)OC(=O)[C@@H]1CCCN1C(=O)[C@@H]1CCCN1C[C@H](C(C)C)N(C)C(=O)[C@@H](NC(=O)[C@H]1CCCCN1C)C(C)(C)C` [ER-807904]: the “desired properties (growth inhibition IC50, resistance ratio, cytotoxicity in non-dividing normal cells, mouse serum stability, mitotic block reversibility, tumor regression, tumor growth inhibition)” value is reported as “exhibiting desired properties”.

For `C/C(=C\[C@H](C(C)C)N(C)C(=O)[C@@H](NC(=O)[C@H]1CCCCN1C(C)C)C(C)(C)C)C(=O)O` [ER-807974], the “desired properties (growth inhibition IC50, resistance ratio, cytotoxicity in non-dividing normal cells, mouse serum stability, mitotic block reversibility, tumor regression, tumor growth inhibition)” value is reported as “exhibiting desired properties”.

The next data set relates to human lung carcinoma, human colon carcinoma and human melanoma.
Assay: not given
The conditions noted are these: cited from earlier work.
As for `CN[C@H](C(=O)N[C@H](C(=O)N(C)[C@H](/C=C(\C)C(=O)O)C(C)C)C(C)(C)C)C(C)(C)c1cn(C)c2ccccc12` [Hemiasterlin], the “antitumor activity against several cell lines” value is listed as “exhibited antitumor activity”.
